Patent US7855292B2, “Sulfonamide compounds” (Janssen Pharmaceutica NV, priority 2004, dated 2010)

Experiments:
[1] = biological target: T1, CCK-1 receptor (Homo sapiens, UniProt P32238); assay: CCK1 binding assay ([125I]-BH-CCK-8S displacement, CHO-K1 membranes); conditions: membranes of CHO-K1 cells stably transfected with the CCK-1 receptor; 20 pM [125I]-BH-CCK-8S; 0.3 μM PD-134,308 present; 60 min at 21±3° C.
T1 construct: expressed in transfected cells; host or cells: CHO-K1
T1 sequence (P32238 1-428): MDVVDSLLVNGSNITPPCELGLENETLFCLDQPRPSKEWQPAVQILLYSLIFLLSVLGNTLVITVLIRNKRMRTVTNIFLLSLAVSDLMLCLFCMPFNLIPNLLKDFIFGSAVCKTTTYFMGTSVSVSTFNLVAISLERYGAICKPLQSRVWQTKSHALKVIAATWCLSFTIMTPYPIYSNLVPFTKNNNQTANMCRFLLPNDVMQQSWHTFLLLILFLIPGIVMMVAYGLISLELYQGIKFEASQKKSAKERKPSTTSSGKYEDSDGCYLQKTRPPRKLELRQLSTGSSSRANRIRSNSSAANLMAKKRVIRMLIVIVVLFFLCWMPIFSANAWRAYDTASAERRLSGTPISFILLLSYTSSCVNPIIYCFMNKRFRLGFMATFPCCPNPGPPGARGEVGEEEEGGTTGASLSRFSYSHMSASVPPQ
Procedure, shortened: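 Membranes from CHO-K1 cells stably expressing CCK-1 incubated 1 h at 21±3° C with 20 pM [125I]-BH-CCK-8S in HEPES buffer pH 7.2 containing 0.3 μM PD-134,308 to block CCK-2. Bound radioactivity read by gamma counting after filtration. pKi derived via Cheng-Prusoff, with specific binding defined using 2-NAP.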

[2] = biological target: T2, CCK2 receptor (Cavia porcellus, UniProt H0VZC5); assay: Guinea-pig gastric corpeal muscle assay (pentagastrin-induced contraction); conditions: isolated guinea-pig gastric corpeal muscle strips, pentagastrin concentration-response curves
T2 construct: strips of muscle were dissected and suspended in isolated tissue organ baths; from tissue; host or cells: guinea-pig gastric corpeal muscle strips
T2 sequence (H0VZC5 1-426): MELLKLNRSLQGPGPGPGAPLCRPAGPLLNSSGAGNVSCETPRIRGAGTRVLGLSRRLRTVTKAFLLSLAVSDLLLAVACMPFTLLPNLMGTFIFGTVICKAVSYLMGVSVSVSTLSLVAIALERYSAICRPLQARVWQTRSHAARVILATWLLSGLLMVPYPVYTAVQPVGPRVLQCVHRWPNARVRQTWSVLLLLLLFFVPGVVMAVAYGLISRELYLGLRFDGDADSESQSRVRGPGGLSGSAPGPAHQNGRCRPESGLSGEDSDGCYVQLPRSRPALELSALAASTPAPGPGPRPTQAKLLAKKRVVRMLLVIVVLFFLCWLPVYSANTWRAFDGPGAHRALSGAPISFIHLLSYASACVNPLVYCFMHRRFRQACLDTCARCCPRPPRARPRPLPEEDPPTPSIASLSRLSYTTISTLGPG
Protocol: B. Guinea-Pig Gastric Corpeal Muscle Assay
CCK2 receptor-mediated muscle contraction was measured in an isolated muscle-strip assay of guinea-pig gastric corpeal muscle according to the methods described by Roberts et al. (S. P. Roberts, E. A. Harper, G. F. Watt, V. P. Gerskowitch, R. A. Hull, N. P. Shankley, and J. W. Black, Br. J. Pharmacol., 1996, 118(7):1779-1789). In brief, strips of muscle were dissected and suspended in isolated tissue organ baths for isotonic muscle contraction recording. The baths, containing Krebs-Henseleit solution, were maintained at 24° C. and gassed continuously with 95% O2 and 5% CO2. CCK1 receptors known to be present in this assay were blocked using a selective concentration of a suitable CCK1 receptor antagonist (e.g. 2-NAP). The effectiveness of the test compounds was assessed by measuring their effect on contractile concentration-response curves obtained using a well-characterized surrogate for the hormone gastrin (pentagastrin).

Compound: O=C(N[C@@H](Cc1ccc(Cl)c(Cl)c1)C(=O)O)c1ccc(I)cc1NS(=O)(=O)c1cccc2nsnc12 [Example 2, (S)-2-[2-(Benzo[1,2,5]thiadiazole-4-sulfonylamino)-4-iodo-benzoylamino]-3-(3,4-dichloro-phenyl)-propionic acid]
- CCK1 pKi [1]: 6.7
- behaviour in the muscle contraction assay (mode of antagonism) [2]: competitive antagonist
- Kb ([2]; CCK1 receptors blocked (e.g. 2-NAP), 24° C.): 1.58 nM
